Source: the NIST ThermoML archive (doi:10.1021/je800416y)
Numbers after ± are expanded uncertainties.

Conditions: 101.33 kPa, Liquid

## CN(CCO)CCO [N-methyldiethanolamine]
298.15 K
  mass density: 1038.22 ± 1.2 kg/m3
303.15 K
  mass density: 1034.49 ± 1.1 kg/m3
308.15 K
  mass density: 1030.75 ± 1.1 kg/m3
313.15 K
  mass density: 1026.99 ± 1.1 kg/m3
318.15 K
  mass density: 1023.25 ± 1 kg/m3
323.15 K
  mass density: 1019.47 ± 0.98 kg/m3
328.15 K
  mass density: 1015.64 ± 0.94 kg/m3
333.15 K
  mass density: 1011.8 ± 0.91 kg/m3
338.15 K
  mass density: 1007.92 ± 0.87 kg/m3
